Experimental data: US6943158B2, “Diazinopyrimidines” (Roche Palo Alto LLC, priority 2002, dated 2005)

How the values were obtained:
FGFR = target: T1, FGFR; test: in vitro FGFR kinase inhibition HTRF assay; type: biochemical; conditions: recombinant GST-tagged FGFR, 10 μM ATP, 37° C. 30 minutes
T1 construct: fused on or other part: GST tag
Experimental: To determine inhibition of FGFR activity, kinase assays were conducted using an HTRF (Homogeneous Time Resolved Fluorescence) assay. This assay is described in A. J. Kolb et. al., Drug Discovery Today, 1998, 3(7), p 333.
Prior to kinase reaction, recombinant GST-tagged FGFR enzyme was activated at room temperature for 1 hour in the following activation buffer: 100 mM HEPES, pH 7.4, 50 mM NaCl, 20 mM MgCl2, and 4 mM ATP.
Kinase activity assays were performed in 96-well polypropylene plates (Falcon) with a total volume of 90 μL in each well. Each well contained 1 μM substrate (Biotin-EEEEYFELV), 1.5 μM activated FGFR, and a test compound with one of 8 assay concentrations ranging from 100 μM to […] (1:5 serial dilution). The kinase activity assay was done in the presence of 100 mM HEPES, pH 7.4, 1 mM DTT, 0.1 mM Na2VO4, 0.4 mM MgCl2, 0.4 mM MnCl2, 50 mM NaCl (from KDR stock solution), 1% DMSO (from compound), 10 μM ATP (Km=8.5 μM for FGFR) and 0.02% BSA. The reaction was incubated at 37° C. for 30 minutes. To stop the FGFR reaction, 72 μL of reaction mixture was transferred into a STOP plate containing 18 μL of revelation buffer (20 mM EDTA, 50 mM HEPES, pH 7.4, 0.02% BSA, 10 nM Eu-labelled anti-p Y antibody (final conc. 2 nM), and 100 nM streptavidin (final conc. 20 nM)). After mixing, 35 μL of solution was transferred into duplicate wells of a 384-well black plate (Costar), and read at 615/665 nm on a Wallac Victor 5 reader.
Compound IC50 values were determined from duplicate sets of data, and calculated by using Excel and fitting data to equation Y=[(a−b)/{1+(X/c)^d]+b, where a and b are enzyme activity in the presence of no test inhibitor compound and an infinite amount of inhibitor test compound, respectively, c is the IC50 and d is the hill constant of the compound response. The IC50 value is the concentration of test compound that reduces by 50% the enzyme activity under the test conditions described. Compounds of the invention were active in the assay. Selected IC50 values are shown below.

p38 MAP kinase = target: T2, p38 MAP kinase (Homo sapiens, UniProt Q16539); test: in vitro p38 MAP kinase inhibition assay (transfer of γ-33P from ATP to Myelin Basic Protein); type: biochemical; conditions: phosphorylated recombinant p38 MAP kinase, MBP substrate, γ-33P-ATP; read-out: p-38 inhibitory activity, IC50
T2 construct: made in house; host or cells: E. coli (co-expressed with SEK-1 and MEKK to phosphorylate it)
T2 sequence (Q16539 whole entry): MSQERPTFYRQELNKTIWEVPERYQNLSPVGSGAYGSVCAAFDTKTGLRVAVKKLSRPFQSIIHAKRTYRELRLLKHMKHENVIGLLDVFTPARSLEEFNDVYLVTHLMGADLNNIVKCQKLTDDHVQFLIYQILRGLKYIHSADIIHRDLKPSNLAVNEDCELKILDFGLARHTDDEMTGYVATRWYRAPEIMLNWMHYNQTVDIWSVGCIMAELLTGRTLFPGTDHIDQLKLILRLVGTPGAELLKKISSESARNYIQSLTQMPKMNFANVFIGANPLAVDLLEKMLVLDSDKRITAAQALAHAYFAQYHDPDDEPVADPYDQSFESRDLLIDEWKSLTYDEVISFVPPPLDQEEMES
Experimental: This example illustrates an in vitro assay procedure for determining p38 MAP kinase inhibition by a compound of Formula I.
The p-38 MAP kinase inhibitory activity of compounds of this invention in vitro is determined by measuring the transfer of the γ-phosphate from γ-^33P-ATP by p-38 kinase to Myelin Basic Protein (MBP), using the a minor modification of the method described in Ahn, N. G.; et al. J. Biol. Chem. Vol. 266(7), 4220-4227, (1991).
The phosphorylated form of the recombinant p38 MAP kinase was expressed with SEK-1 and MEKK in E. Coli and then purified by affinity chromatography using a Nickel column.
The phosphorylated p38 MAP kinase is diluted in kinase buffer (20 mM 3-(N-morpholino)propanesulfonic acid, pH 7.2, 25 mM β-glycerol phosphate, 5 mM ethylene glycol-bis(beta-aminoethyl ether)-N,N,N′,N′-tetraacetic acid, 1 mM sodium vanadate, 1 mM dithiothreitol, 40 mM magnesium chloride). Test compound dissolved in DMSO or only DMSO (control) is added and the samples are incubated for 10 min at 30° C. The kinase reaction is initiated by the addition of a substrate cocktail containing MBP and γ-^33P-ATP. […] The phosphorylated MBP is then separated from the residual γ-^33P-ATP using a phosphocellulose membrane (Millipore, Bedford, Mass.) and quantitated using a scintillation counter (Packard, Meriden, Conn.). […]

| Compound | IC50 (FGFR) [µM] | IC50 (p38 MAP kinase) [µM] | melting point [°C] |
| --- | --- | --- | --- |
| CN1N=C(c2c(Cl)cccc2Cl)Oc2cnc(Nc3ccc(F)cc3)nc21 [compound 6, [3-(2,6-Dichloro-phenyl)-1-methyl-1H-pyrimido[4,5-e][1,3,4]oxadiazin-7-yl]-(4-fluoro-phenyl)-amine] | 0.24 |  |  |
| CN1N=C(c2ccccc2F)Oc2cnc(NC3CCOCC3)nc21 [compound 2] |  | 2.2 |  |
| CN1N=C(c2ccccc2Cl)Oc2cnc(NC3CCOCC3)nc21 [compound 1, 2-methyl-4-(2-chlorophenyl)-6-(tetrahydropyranyl-4-amino)-4H-1,3,4-pyrimido[4,5-e]oxadiazine] |  | 0.189 | 171 to 172.1 |
| CN1N=C(c2c(Cl)cccc2Cl)Oc2cnc(Nc3ccccc3)nc21 [compound 5, [3-(2,6-dichlorophenyl)-1-methyl-1H-pyrimido[4,5-e][1,3,4]oxadiazin-7-yl]-phenyl-amine] | 0.18 |  |  |
| CN1N=C(c2c(Cl)cccc2Cl)Oc2cnc(Nc3ccc(N4CCOCC4)cc3)nc21 [compound 29, [3-(2,6-dichlorophenyl)-1-methyl-1H-pyrimido[4,5-e][1,3,4]oxadiazin-7-yl]-(4-morpholin-4-yl-phenyl)amine] |  |  | 192.2 to 200.3 |
| CN1N=C(c2c(Cl)cccc2Cl)Oc2cnc(Nc3cccc(Cl)c3)nc21 [compound 7, [3-(2,6-Dichloro-phenyl)-1-methyl-1H-pyrimido[4,5-e][1,3,4]oxadiazin-7-yl]-(3-chloro-phenyl)-amine] | 0.32 |  |  |
